Measurements from paper PMC7402526, “An in vitro quantitative systems pharmacology approach for deconvolving mechanisms of drug-induced, multilineage cytopenias” (PLoS Computational Biology, 2020).

How the values were obtained:
Type in all cases: cell-based, human
[1] = system: neutrophils (neutrophil-lin); experiment: MLTA, Neut: concentration-response and QSP model fit; details: Homo sapiens, Neutrophil, 144 h
Experimental: (§1) A custom optimized cytokine cocktail was developed using commercially available cytokines (Peprotech, New Jersey) to facilitate simultaneous multi-lineage differentiation and self-renewal of freeze-thawed primary human bone marrow-derived CD34+ cells in SFEM II media (cells and media from StemCell Technologies, Vancouver). Cultures were carried out in ultra-low attachment 96-well plates (Corning, New York) with test article added on day 0 and cultured at 37°C, 85% relative humidity, and 5% CO2 for six days before interrogating drug impact via 17-parameter flow cytometry.
(§2) The flow cytometry panel used to define hematopoietic subsets was composed of CD34-PECy7, CD90-PECY5, CD38-AF488, CD371-PE, CD45Ra-BV421, CD14-BV605, CD42b-AF647, CD10-PEDazzle594, CD235a-PerCPCy5.5 (BioLegend, California), CD15-BUV395, CD41a-APCH7, CD71-BV786 (BD Biosciences, California), and DAPI for dead cell exclusion (ThermoFisher, California). In short, Day 6 cells were harvested, FcR-blocked (FcR binding inhibitor, ThermoFisher), surface-stained, then analyzed in a buffer containing TruCount Control Beads using a BD LSR Fortessa SORP fitted with a high-throughput sampler (BD Biosciences, California). Data was analyzed in Diva 6.0.2 and exported to CSV where after all cell data was transformed to cell per mL then normalized on a per-donor basis to untreated control wells to determine drug impact.
(§3) Donor material was collected and cultured as described above. The number of replicate donor samples per drug ranged from 2–7 and varied per drug (S1 Table). Drug treatment was added at time 0 and cells were maintained in culture for 6 days. Concentrations tested for each drug compound are contained in S1 Table. Concentrations were selected to span a range that is clinically useful. Following treatment, cell populations were measured using flow cytometry. We extracted cell counts from flow cytometry data, normalized to bead counts, and corrected for well volume.
(§4) Each well was normalized to the average of six vehicle control wells. For drugs that were tested across multiple runs of the assay, vehicle-normalized donor data were pooled, and we used the average of these pooled data for further modeling. Normalized data used as model inputs are included in S1 Table.
(§5) We implemented drug effects using an Emax model for the drug’s effect on each cell type. The 13 maximum effect parameters (EmaxT,C) are unitless and can vary between 0 and 2 and where a subscript, C, represents one of the previously described 13 cell types. We adapted a traditional Emax model using the equations below. We interpreted EmaxT values less than or equal to one as anti-proliferative, and EmaxT values greater than one as indicating a cell-killing mechanism in addition to anti-proliferation. The relationships for these effects are included in the model using the following equations. Eq 2 describes the drug anti-proliferative effect in the net proliferation rate for a given cell type. Eq 3 describes the cell-killing EmaxCK effect.
(§6) Towards the estimation of mechanistic parameters, we considered different formulations: (a) weighting the objective value to prioritize fitting dead cells and (b) using regularization methodology to encourage a parsimonious solution. We assessed the contributions of these formulations using mean-squared error and goodness of fit plots for drugs with known mechanisms. […] Further, we used L1 regularization to penalize parameters […] to help identify a parsimonious set of parameters to explain drug effects.

[2] = system: granulocyte progenitor (Gran-lin prog); experiment: MLTA, GranP: concentration-response and QSP model fit; details: Homo sapiens, 144 h
Experimental: as §1, §2, §3, §4, §5, §6

[3] = system: multi-potent progenitors (MPPs); experiment: MLTA, MPPs: concentration-response and QSP model fit; details: Homo sapiens, 144 h
Experimental: as §1, §2, §3, §4, §5, §6

MK cells (MK-lin) = experiment: MLTA, MK: concentration-response and QSP model fit; details: Homo sapiens, 144 h
Experimental: as §1, §2, §3, §4, §5, §6

[4] = system: early erythroid cells (Eryth I); experiment: MLTA, ErythI: concentration-response and QSP model fit; details: Homo sapiens, 144 h
Experimental: as §1, §2, §3, §4, §5, §6

[5] = system: hematopoietic stem cells (HSCs); experiment: Multi-lineage toxicity assay (MLTA), HSCs: concentration-response and QSP model fit; set-up: EmaxAP,HSC / EmaxT,HSC / Emax_drug_HSC: unitless, 0–2; ≤1 anti-proliferative, >1 adds cell killing
Experimental: as §1, §2, §3, §4, §5, §6

[6] = system: late erythroid cells (Eryth II); experiment: MLTA, ErythII: concentration-response and QSP model fit; details: Homo sapiens, 144 h
Experimental: as §1, §2, §3, §4, §5, §6

[7] = QSP model fit of 6-day MLTA data

With `CCN1CCN(Cc2ccc(Nc3ncc(F)c(-c4cc(F)c5nc(C)n(C(C)C)c5c4)n3)nc2)CC1` [abemaciclib] the EC50 [1, 7] was 66.2 nM, the activity at 0.0002 µM ([1]; dose 0.2 nM, 6 days, normalized to vehicle control, read-out: Neut normalized cell count) was 99.5% and the activity at 0.001 µM ([1]; dose 1 nM, 6 days, normalized to vehicle control, read-out: Neut normalized cell count) was 100%. For the same compound, the activity at 0.005 µM ([1]; dose 5 nM, 6 days, normalized to vehicle control, read-out: Neut normalized cell count) was 86.7%, the activity at 0.025 µM ([1]; dose 25 nM, 6 days, normalized to vehicle control, read-out: Neut normalized cell count) was 30.8% and the activity at 0.1 µM ([1]; dose 100 nM, 6 days, normalized to vehicle control, read-out: Neut normalized cell count) was 4.02%. For the same compound, the activity at 0.5 µM ([1]; dose 500 nM, 6 days, normalized to vehicle control, read-out: Neut normalized cell count) was 0.252%, the activity at 2.5 µM ([1]; dose 2500 nM, 6 days, normalized to vehicle control, read-out: Neut normalized cell count) was 0.0296% and the Emax ([1]; parameter from QSP model fitting, read-out: Emax_drug_Neut) was 23.5%. It also gave an activity at 0.0002 µM ([2]; dose 0.2 nM, 6 days, normalized to vehicle control, read-out: GranPs normalized cell count) of 95.1%, an activity at 0.001 µM ([2]; dose 1 nM, 6 days, normalized to vehicle control, read-out: GranPs normalized cell count) of 100% and an activity at 0.005 µM ([2]; dose 5 nM, 6 days, normalized to vehicle control, read-out: GranPs normalized cell count) of 86.6%. It also gave an activity at 0.025 µM ([2]; dose 25 nM, 6 days, normalized to vehicle control, read-out: GranPs normalized cell count) of 52%, an activity at 0.1 µM ([2]; dose 100 nM, 6 days, normalized to vehicle control, read-out: GranPs normalized cell count) of 24.8% and an activity at 0.5 µM ([2]; dose 500 nM, 6 days, normalized to vehicle control, read-out: GranPs normalized cell count) of 2.43%. It also gave an activity at 2.5 µM ([2]; dose 2500 nM, 6 days, normalized to vehicle control, read-out: GranPs normalized cell count) of 0.0287%, an Emax ([2]; parameter from QSP model fitting, read-out: Emax_drug_GranP) of 0.23% and an activity at 0.0002 µM ([3]; dose 0.2 nM, 6 days, normalized to vehicle control, read-out: MPPs normalized cell count) of 102%. It also gave an activity at 0.001 µM ([3]; dose 1 nM, 6 days, normalized to vehicle control, read-out: MPPs normalized cell count) of 98.3%, an activity at 0.005 µM ([3]; dose 5 nM, 6 days, normalized to vehicle control, read-out: MPPs normalized cell count) of 80.3% and an activity at 0.025 µM ([3]; dose 25 nM, 6 days, normalized to vehicle control, read-out: MPPs normalized cell count) of 44.3%. For the same compound, the activity at 0.1 µM ([3]; dose 100 nM, 6 days, normalized to vehicle control, read-out: MPPs normalized cell count) was 24.8%, the activity at 0.5 µM ([3]; dose 500 nM, 6 days, normalized to vehicle control, read-out: MPPs normalized cell count) was 27.6% and the activity at 2.5 µM ([3]; dose 2500 nM, 6 days, normalized to vehicle control, read-out: MPPs normalized cell count) was 3.6%. The Emax ([3]; parameter from QSP model fitting, read-out: Emax_drug_MPP) was 0.16%, the EC50 (MK cells (MK-lin); [7]) was 486 nM and the activity at 0.0002 µM (MK cells (MK-lin); dose 0.2 nM, 6 days, normalized to vehicle control, read-out: MK normalized cell count) was 108%. The activity at 0.001 µM (MK cells (MK-lin); dose 1 nM, 6 days, normalized to vehicle control, read-out: MK normalized cell count) was 99.5%, the activity at 0.005 µM (MK cells (MK-lin); dose 5 nM, 6 days, normalized to vehicle control, read-out: MK normalized cell count) was 101% and the activity at 0.025 µM (MK cells (MK-lin); dose 25 nM, 6 days, normalized to vehicle control, read-out: MK normalized cell count) was 84.2%. The activity at 0.1 µM (MK cells (MK-lin); dose 100 nM, 6 days, normalized to vehicle control, read-out: MK normalized cell count) was 44.1%, the activity at 0.5 µM (MK cells (MK-lin); dose 500 nM, 6 days, normalized to vehicle control, read-out: MK normalized cell count) was 8.35% and the activity at 2.5 µM (MK cells (MK-lin); dose 2500 nM, 6 days, normalized to vehicle control, read-out: MK normalized cell count) was 0.557%. It also gave an Emax (MK cells (MK-lin); parameter from QSP model fitting, read-out: Emax_drug_MK) of 6.8%, an EC50 ([4]; QSP model fit of 6-day MLTA data, read-out: EC50ErythI) of 29.2 nM and an activity at 0.0002 µM ([4]; dose 0.2 nM, 6 days, normalized to vehicle control, read-out: ErythI normalized cell count) of 107%. It also gave an activity at 0.001 µM ([4]; dose 1 nM, 6 days, normalized to vehicle control, read-out: ErythI normalized cell count) of 116%, an activity at 0.005 µM ([4]; dose 5 nM, 6 days, normalized to vehicle control, read-out: ErythI normalized cell count) of 97.8% and an activity at 0.025 µM ([4]; dose 25 nM, 6 days, normalized to vehicle control, read-out: ErythI normalized cell count) of 47.1%. The activity at 0.1 µM ([4]; dose 100 nM, 6 days, normalized to vehicle control, read-out: ErythI normalized cell count) was 20.1%, the activity at 0.5 µM ([4]; dose 500 nM, 6 days, normalized to vehicle control, read-out: ErythI normalized cell count) was 4.76% and the activity at 2.5 µM ([4]; dose 2500 nM, 6 days, normalized to vehicle control, read-out: ErythI normalized cell count) was 0.613%. The Emax ([4]; parameter from QSP model fitting, read-out: Emax_drug_ErythroidI) was 102%, the EC50 ([5]; Homo sapiens, Hematopoietic stem cell, 144 h, QSP model fit of 6-day MLTA data) was 111 nM and the activity at 0.0002 µM ([5]; Homo sapiens, Hematopoietic stem cell, 144 h, dose 0.2 nM, 6 days, normalized to vehicle control, read-out: HSCs normalized cell count) was 89.3%. The activity at 0.001 µM ([5]; Homo sapiens, Hematopoietic stem cell, 144 h, dose 1 nM, 6 days, normalized to vehicle control, read-out: HSCs normalized cell count) was 103%, the activity at 0.005 µM ([5]; Homo sapiens, Hematopoietic stem cell, 144 h, dose 5 nM, 6 days, normalized to vehicle control, read-out: HSCs normalized cell count) was 98.4% and the activity at 0.025 µM ([5]; Homo sapiens, Hematopoietic stem cell, 144 h, dose 25 nM, 6 days, normalized to vehicle control, read-out: HSCs normalized cell count) was 66.7%. For the same compound, the activity at 0.1 µM ([5]; Homo sapiens, Hematopoietic stem cell, 144 h, dose 100 nM, 6 days, normalized to vehicle control, read-out: HSCs normalized cell count) was 25.9%, the activity at 0.5 µM ([5]; Homo sapiens, Hematopoietic stem cell, 144 h, dose 500 nM, 6 days, normalized to vehicle control, read-out: HSCs normalized cell count) was 5.33% and the activity at 2.5 µM ([5]; Homo sapiens, Hematopoietic stem cell, 144 h, dose 2500 nM, 6 days, normalized to vehicle control, read-out: HSCs normalized cell count) was 2.74%. The Emax ([5]; Homo sapiens, Hematopoietic stem cell, 144 h, parameter from QSP model fitting, read-out: Emax_drug_HSC) was 91%, the “EmaxAP,HSC” value ([5]; anti-proliferation component, min(1, EmaxT)) was 0.910 and the EC50 ([6]; QSP model fit of 6-day MLTA data, read-out: EC50ErythII) was 45.1 nM. It also gave an activity at 0.0002 µM ([6]; dose 0.2 nM, 6 days, normalized to vehicle control, read-out: ErythII normalized cell count) of 96.2%, an activity at 0.001 µM ([6]; dose 1 nM, 6 days, normalized to vehicle control, read-out: ErythII normalized cell count) of 112% and an activity at 0.005 µM ([6]; dose 5 nM, 6 days, normalized to vehicle control, read-out: ErythII normalized cell count) of 106%. The activity at 0.025 µM ([6]; dose 25 nM, 6 days, normalized to vehicle control, read-out: ErythII normalized cell count) was 57.9%, the activity at 0.1 µM ([6]; dose 100 nM, 6 days, normalized to vehicle control, read-out: ErythII normalized cell count) was 20.4% and the activity at 0.5 µM ([6]; dose 500 nM, 6 days, normalized to vehicle control, read-out: ErythII normalized cell count) was 1.77%. It also gave an activity at 2.5 µM ([6]; dose 2500 nM, 6 days, normalized to vehicle control, read-out: ErythII normalized cell count) of 0.0231% and an Emax ([6]; parameter from QSP model fitting, read-out: Emax_drug_ErythroidII) of 3.33%.
